The values that follow are results of earlier work, collected in patent US20100226886A1, “Combinations of MTP Inhibitors with Cholesterol Absorption Inhibitors or Interferon for Treating Hepatitis C” (priority 2007, published 2010).

For data set [1] the following is noted: animal model for homozygous familial hypercholesterolemia; for example at 25 mg/day.
For data set [2] the following is noted: clinical studies, 80 mg/day or greater.
The conditions of data set [3]: in vivo.

“Also recorded” adds a separate entry of the source. Read-outs that look alike come from different tables or passages of the source.

As for `O=C(NC1CCN(CCCCC2(C(=O)NCC(F)(F)F)c3ccccc3-c3ccccc32)CC1)c1ccccc1-c1ccc(C(F)(F)F)cc1` [BMS-201038, N-(2,2,2-Trifluorethyl)-9-[4-[4-[[[4′-(trifluoromethyl) [1,1′biphenyl]-2-Yl]carbonyl]amino]-1-piperidinyl]butyl]9H-fluorene-9-carboxamide], the adverse events entry is, setting by setting: (25 mg/day) “gastrointestinal disturbances, abnormalities in liver function, and hepatic steatosis”; (25 mg/day, listed as AEGR-733) “gastrointestinal disorders, abnormalities in liver function and/or hepatic steatosis”. In addition, the plasma cholesterol levels result in data set [1] is given as “effectively reduced plasma cholesterol levels in a dose dependent manner”.

With `Cc1cc(C)c2c3ccccc3n(Cc3ccc([C@@H](C(=O)N[C@H](CO)c4ccccc4)C4CCCC4)cc3)c2n1` [implitapide, (2S)-2-cyclopentyl-2-[4-[(2,4-dimethyl-9H-pyrido[2,3-b]indol-9-yl)methyl]phenyl]-N-[(1S)-2-hydroxy-1-phenylethyl]ethanamide], the efficacy for hypercholesterolemia result in data set [2] is reported as “therapeutically effective for hypercholesterolemia”. The adverse events entry (80 mg/day or greater (80 mg/day and 160 mg/day)) was “gastrointestinal disturbances, abnormalities in liver function, and hepatic steatosis; also recorded: gastrointestinal disorders, abnormalities in liver function and/or hepatic steatosis”.

On to `NC(=O)c1ncn([C@@H]2O[C@H](CO)[C@@H](O)[C@H]2O)n1` [ribavirin], for which the “increase of sustained response rate” value in the data set with HCV (ribavirin added to interferon or peginterferon) was “two- to three-fold”. Also, in the data set with HCV (ribavirin by itself), the “effect on HCV” value is reported as “little effect on HCV”. Also, in data set [3], the “side effects in patients” value is “red cell haemolysis to a variable degree in almost all patients”.

Alpha interferon: the “side effects in patients” value in data set [3] is “multiple neuropsychiatric effects”.
